One may read the IC50 as the point on the concentration scale where inhibition reaches its midpoint.

“And” between values parts separate entries of the source, which are not always exact repeats. Identical values can stand only once. Like-named read-outs stand apart in the source and are kept apart here.

Series [1] relates to OPM-2 human multiple myeloma cell line. Briefly: Cell Viability Assay (OPM-2 10 FBS). It counts as cell-based. The settings on record: OPM-2 cells, CellTiter-Glo. Put shortly:
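OPM-2 myeloma cells, 3000/well in medium with 10% FBS, exposed to serially diluted compounds for 16 h at 37° C./5% CO2. Viability read by CellTiter-Glo luminescence; IC50 from 4-parameter logistic fit.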
(In ATP-based viability assays light output follows the ATP content of the culture.)

The target of series [2] is T1, Mcl-1/Bim interaction, recombinant human Mcl-1 (171-327) (Homo sapiens, UniProt Q07820).
T1 construct: made in house
Put plainly: Cell free Mcl-1: Bim Affinity Assay (Mcl-1 HTRF). It counts as binding. The gist of the method: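 Biotin-Bim(51-76) peptide, TR-FRET readout, overnight incubation; IC50 from duplicate competition curves, 4-parameter fit.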

The mark [3] stands for this setting: Homo sapiens, OPM-2, 16 h, 16 h incubation.
Setting [4] is: TR-FRET, 0.1 nM Mcl-1 (171-327), 0.05 nM biotin-Bim (51-76).

T1 sequence (Q07820 171-327): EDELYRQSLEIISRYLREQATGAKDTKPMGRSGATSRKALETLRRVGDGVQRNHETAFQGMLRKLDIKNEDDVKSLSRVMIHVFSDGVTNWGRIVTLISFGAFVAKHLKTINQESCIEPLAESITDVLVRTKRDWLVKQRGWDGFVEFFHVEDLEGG

`C=CC[C@@H](O)[C@H](C)S(=O)(=O)NC(=O)c1ccc2c(c1)N(C[C@@H]1CC[C@H]1[C@@H](O)/C=C/CCC)C[C@@]1(CCCc3cc(Cl)ccc31)CO2` had a ring closure, isolated yield (the molecule shown is the open-chain precursor, rcm bond, 16-membered ring, Hoveyda-Grubbs II (50 mol%), AcOH, 8.6 mM, 60.0 °C) of 24.5%.

`CC(C)(C)[Si](C)(C)OC[C@H]1CC=CC[C@H](O)[C@@H]2CC[C@H]2CN2C[C@@]3(CCCc4cc(Cl)ccc43)COc3ccc(cc32)C(=O)NS1(=O)=O` registered a ring closure, isolated yield (from C=CC[C@H](CO[Si](C)(C)C(C)(C)C)S(=O)(=O)NC(=O)c1ccc2c(c1)N(C[C@@H]1CC[C@H]1[C@@H](O)CC=C)C[C@@]1(CCCc3cc(Cl)ccc31)CO2, rcm bond, 16-membered ring, Hoveyda-Grubbs II (20 mol%), toluene, 0.72 mM, 106.0 °C, 2.0 h) of 85.9%. On to `COCCN1[C@@H](C)CC=C[C@H](O)[C@@H]2CC[C@H]2CN2C[C@@]3(CCCc4cc(Cl)ccc43)COc3ccc(cc32)C(=O)NS1(=O)=O`, for which the ring closure, isolated yield (from C=CC[C@H](C)N(CCOC)S(=O)(=O)NC(=O)c1ccc2c(c1)N(C[C@@H]1CC[C@H]1[C@@H](O)C=C)C[C@@]1(CCCc3cc(Cl)ccc31)CO2, rcm bond, 16-membered ring, Hoveyda-Grubbs II, 1,2-dichloroethane, 2.0 mM, 60.0 °C, 18.0 h) was determined as 37%. Take `C[C@@H]1CC/C=C/[C@H](O)[C@]2(C)CC[C@H]2CN2C[C@@]3(CCCc4cc(Cl)ccc43)COc3ccc(cc32)C(=O)NS1(=O)=O`: the ring closure, isolated yield (from C=CCC[C@@H](C)S(=O)(=O)NC(=O)c1ccc2c(c1)N(C[C@@H]1CC[C@@]1(C)[C@@H](O)C=C)C[C@@]1(CCCc3cc(Cl)ccc31)CO2, rcm bond, 16-membered ring, Hoveyda-Grubbs II, DCM, 2.0 mM, […]) stood at 12.4%. `C[C@@H]1[C@@H](C)C/C=C/[C@@H](O)[C@@H]2CC[C@H]2CN2C[C@@]3(CCCc4cc(Cl)ccc43)COc3ccc(cc32)C(=O)NS1(=O)=O` gave a ring closure, isolated yield (from C=CC[C@H](C)[C@@H](C)S(=O)(=O)NC(=O)c1ccc2c(c1)N(C[C@@H]1CC[C@H]1[C@H](O)/C=C/CCC)C[C@@]1(CCCc3cc(Cl)ccc31)CO2, rcm bond, 16-membered ring, Hoveyda-Grubbs II (10 mol%), DCE, 1.87 mM, 80.0 °C) of 12.9%. In turn, `C[C@@H]1[C@H]2/C=C/[C@H](O)[C@@H]3CC[C@H]3CN3C[C@@]4(CCCc5cc(Cl)ccc54)COc4ccc(cc43)C(=O)NS(=O)(=O)[C@H]1CCC2` gave a ring closure, isolated yield (from C[C@H]1[C@H](/C=C/[C@H](O)[C@@H]2CC[C@H]2CN2C[C@@]3(CCCc4cc(Cl)ccc43)COc3ccc(C(=O)O)cc32)CCC[C@H]1S(N)(=O)=O, amide bond, 16-membered ring, EDC/DMAP, DCM, 2.0 mM) of 11.6%. On to `C[C@H]1CC=C[C@H](O)[C@@H]2CC[C@H]2CN2C[C@@]3(CCCc4cc(Cl)ccc43)COc3ccc(cc32)C(=O)NS(=O)(=O)N1CC1CC1`, for which the ring closure, isolated yield (from C=CC[C@H](C)N(CC1CC1)S(=O)(=O)NC(=O)c1ccc2c(c1)N(C[C@@H]1CC[C@H]1[C@@H](O)C=C)C[C@@]1(CCCc3cc(Cl)ccc31)CO2, rcm bond, 16-membered ring, Hoveyda-Grubbs II, 1,2-dichloroethane, 1.5 mM, 50.0 °C, 24.0 h) was 45%. `C[C@]12CC[C@@H]1CN1C[C@@]3(CCCc4cc(Cl)ccc43)COc3ccc(cc31)C(=O)NS(=O)(=O)CC/C=C/C[C@@H]2O` returned a ring closure, isolated yield (from C=CCCS(=O)(=O)NC(=O)c1ccc2c(c1)N(C[C@@H]1CC[C@@]1(C)[C@@H](O)CC=C)C[C@@]1(CCCc3cc(Cl)ccc31)CO2, rcm bond, 16-membered ring, 1.5 h) of 4.76%. Compound `C[C@]12CC[C@H]1CN1C[C@@]3(CCCc4cc(Cl)ccc43)COc3ccc(cc31)C(=O)NS(=O)(=O)CC/C=C\C[C@@H]2O` registered a ring closure, isolated yield (from C=CCCS(=O)(=O)NC(=O)c1ccc2c(c1)N(C[C@H]1CC[C@@]1(C)[C@@H](O)CC=C)C[C@@]1(CCCc3cc(Cl)ccc31)CO2, rcm bond, 16-membered ring, Hoveyda-Grubbs II, toluene, 1.0 mM, 1.5 h) of 83%.

`O=C1NS(=O)(=O)C2CC(/C=C/[C@H](O)[C@@H]3CC[C@H]3CN3C[C@@]4(CCCc5cc(Cl)ccc54)COc4ccc1cc43)C2`: the ring closure, isolated yield (from NS(=O)(=O)C1CC(/C=C/[C@H](O)[C@@H]2CC[C@H]2CN2C[C@@]3(CCCc4cc(Cl)ccc43)COc3ccc(C(=O)O)cc32)C1, amide bond, 16-membered ring, EDC/DMAP, DCM, 2.0 mM) was 3.3% and 22%. In turn, `O=C1NS(=O)(=O)NCCC=C[C@H](O)[C@@H]2CC[C@H]2CN2C[C@@]3(CCCc4cc(Cl)ccc43)COc3ccc1cc32` displayed a ring closure, isolated yield (from C=CCCNS(=O)(=O)NC(=O)c1ccc2c(c1)N(C[C@@H]1CC[C@H]1[C@@H](O)C=C)C[C@@]1(CCCc3cc(Cl)ccc31)CO2, rcm bond, 16-membered ring, Hoveyda-Grubbs II, 1,1-dichloroethane, 1.5 mM, 50.0 °C, 24.0 h) of 61%. On to `O=C1NS(=O)(=O)[C@@H]2C[C@H]2C/C=C/[C@H](O)[C@@H]2CC[C@H]2CN2C[C@@]3(CCCc4cc(Cl)ccc43)COc3ccc1cc32`, for which, under “from C=CCC1C[C@H]1S(=O)(=O)NC(=O)c1ccc2c(c1)N(C[C@@H]1CC[C@H]1[C@@H](O)C=C)C[C@@]1(CCCc3cc(Cl)ccc31)CO2, rcm bond, 16-membered ring, Hoveyda-Grubbs II, AcOH, 0.915 mM, 36.0 h”, the ring closure, isolated yield was found to be 55%. Compound `O=C1NS(=O)(=O)C[C@H]2C[C@H]2/C=C/[C@H](O)[C@@H]2CC[C@H]2CN2C[C@@]3(CCCc4cc(Cl)ccc43)COc3ccc1cc32` (mixture of isomers) returned a ring closure, isolated yield (from C=C[C@H](O)[C@@H]1CC[C@H]1CN1C[C@@]2(CCCc3cc(Cl)ccc32)COc2ccc(C(=O)NS(=O)(=O)C[C@@H]3C[C@@H]3/C=C/C)cc21, rcm bond, 16-membered ring, Hoveyda-Grubbs II, DCE, 1.99 mM, 60.0 °C, 6.0 h) of 29%. On to `CN1CC=CCS(=O)(=O)NC(=O)c2ccc3c(c2)N(C[C@@H]2CC[C@H]2C1=O)C[C@@]1(CCCc2cc(Cl)ccc21)CO3` (single isomer, unassigned), for which, under “from C=CCN(C)C(=O)[C@@H]1CC[C@H]1CN1C[C@@]2(CCCc3cc(Cl)ccc32)COc2ccc(C(=O)NS(=O)(=O)CC=C)cc21, rcm bond, 16-membered ring, Hoveyda-Grubbs II, toluene, 1.0 mM, 1.5 h”, the ring closure, isolated yield worked out at 48%. For the compound `COC[C@@]1(C)CC=C[C@H](O)[C@@H]2CC[C@H]2CN2C[C@@]3(CCCc4cc(Cl)ccc43)COc3ccc(cc32)C(=O)NS1(=O)=O` (single isomer, unassigned), the ring closure, isolated yield (from COC[C@@](C)(C/C=C/[C@H](O)[C@@H]1CC[C@H]1CN1C[C@@]2(CCCc3cc(Cl)ccc32)COc2ccc(C(=O)O)cc21)S(N)(=O)=O, amide bond, 15-membered ring) is 8.8% and 7.5%.

`COc1ccc(CN2CC=CCS(=O)(=O)NC(=O)c3ccc4c(c3)N(C[C@@H]3CC[C@H]3C2=O)C[C@@]2(CCCc3cc(Cl)ccc32)CO4)cc1` (single isomer, unassigned) came in with a ring closure, isolated yield (from C=CCN(Cc1ccc(OC)cc1)C(=O)[C@@H]1CC[C@H]1CN1C[C@@]2(CCCc3cc(Cl)ccc32)COc2ccc(C(=O)NS(=O)(=O)CC=C)cc21, rcm bond, 16-membered ring, Hoveyda-Grubbs II, toluene, 1.0 mM, 110.0 °C, 1.5 h) of 51%. In turn, `C[C@H]1CC=CC[C@H](O)[C@@H]2CC[C@H]2CN2C[C@@]3(CCCc4cc(Cl)ccc43)COc3ccc(cc32)C(=O)NS(=O)(=O)[C@H]1C` (single isomer, unassigned) came in with a ring closure, isolated yield (from C=CC[C@H](C)[C@H](C)S(=O)(=O)NC(=O)c1ccc2c(c1)N(C[C@@H]1CC[C@H]1[C@@H](O)CC=C)C[C@@]1(CCCc3cc(Cl)ccc31)CO2, rcm bond, 17-membered ring, Hoveyda-Grubbs II (10 mol%), DCM, 1.6 mM, 45.0 °C) of 25%. For `O=C1NS(=O)(=O)CC2CC2C=C[C@H](O)[C@@H]2CC[C@H]2CN2C[C@@]3(CCCc4cc(Cl)ccc43)COc3ccc1cc32` (single isomer, unassigned), the ring closure, isolated yield (from C=C[C@H](O)[C@@H]1CC[C@H]1CN1C[C@@]2(CCCc3cc(Cl)ccc32)COc2ccc(C(=O)NS(=O)(=O)CC3CC3/C=C/C)cc21, rcm bond, 16-membered ring, Hoveyda-Grubbs II, DCE, 2.0 mM, 60.0 °C, 6.0 h) was determined as 12%. With `O=C1NS(=O)(=O)C[C@@H](CO)C/C=C/[C@H](O)[C@@H]2CC[C@H]2CN2C[C@@]3(CCCc4cc(Cl)ccc43)COc3ccc1cc32` [Example 1086, (1S,3′R,6′R,7′S,8′E,11′R)-6-chloro-7′-hydroxy-11′-(hydroxymethyl)-3,4-dihydro-2H,15′H-spiro [naphthalene-1,22′-[20]oxa[13]thia[1,14]diazatetracyclo[14.7.2.0^3,6.0^19,24]pentacosa [8,16,18,24]tetraen]-15′-one 13′,13′-dioxide], the 50% inhibitory concentration (IC50) amounted to 8.65 µM in series [1] (setting [3]) and 0.000421 µM in series [2] (setting [4]).

Regarding `COC[C@H]1C/C=C/[C@H](O)[C@@H]2CC[C@H]2CN2C[C@@]3(CCCc4cc(Cl)ccc43)COc3ccc(cc32)C(=O)NS(=O)(=O)C1` [Example 1087, (1S,3′R,6′R,7′S,8′E,11′R)-6-chloro-7′-hydroxy-11′-(methoxymethyl)-3,4-dihydro-2H,15′H-spiro [naphthalene-1,22′-[20]oxa[13]thia[1,14]diazatetracyclo[14.7.2.0^3,6.0^19,24]pentacosa [8,16,18,24]tetraen]-15′-one 13′,13′-dioxide], the IC50 in series [1] (setting [3]) worked out at 0.693 µM; in series [2] (setting [4]), 0.000494 µM. For the compound “(1S,3′R,6′R,7′S,11′S,13′R)-6-chloro-13′-methyl-3,4-dihydro-2H,17′H-spiro[naphthalene-1,24′-[8,12,22]trioxa[15]thia[1,16]diazapentacyclo[16.7.2.1^7,11.0^36.0^21,26]octacosa[18,20,26]trien]-17′-one 15′,15′-dioxide [Example 920]”, the IC50 in series [1] (16 h) was 4.35 µM; in series [2] (cell free Mcl-1:Bim TR-FRET, recombinant human Mcl-1 (171-327)) it was 0.00186 µM. On to “(1S,3′R,6′R,9′R)-6-chloro-9′-methyl-3,4-dihydro-2H,15′H-spiro[naphthalene-1,22′-[20]oxa[13]thia[1,14]diazatetracyclo[14.7.2.0^3,6.0^19,24]pentacosa [16,18,24]trien]-15′-one 13′,13′-dioxide and (1S,3′R,6′R,9′S)-6-chloro-9′-methyl-3,4-dihydro-2H,15′H-spiro[naphthalene-[20]oxa[13]thia[1,14]diazatetracyclo[14.7.2.0^3,6.0^19,24]pentacosa [16,18,24]trien]-15′-one 13′,13′-dioxide [Example 276]”, for which the results for the half-maximal inhibitory concentration (IC50) in series [1] (16 h) and in series [2] (setting [4]) were 6.41 µM and 0.0132 µM, respectively.

For the origin of these results see patent US12091425B2 (AMGEN INC., priority 2016, dated 2024).
